Assay type in all cases: functional, cell-based
The target in test [1] is T1, ATP-dependent translocase ABCB1 (Homo sapiens, UniProt P08183). Briefly: TP_TRANSPORTER: inhibition of Daunorubicin transepithelial transport (basal to apical) (Daunorubicin: 0.035 uM) in MDR1-expressing LLC-PK1 cells.
Test [2] has as its target T1, ATP-dependent translocase ABCB1. Briefly: TP_TRANSPORTER: inhibition of Daunorubicin transepithelial transport (basal to apical), (-)-efonidipine (Daunorubicin: 0.035 uM) in MDR1-expressing LLC-PK1 cells.
The target is the same in test [3]. Briefly: TP_TRANSPORTER: inhibition of Daunorubicin transepithelial transport (basal to apical), (+)-efonidipine (Daunorubicin: 0.035 uM) in MDR1-expressing LLC-PK1 cells.

pIC50: −log10 of the molar value.

The text below walks through data of ChEMBL document CHEMBL2074205, “Inhibitory potencies of 1,4-dihydropyridine calcium antagonists to P-glycoprotein-mediated transport: comparison with the effects on CYP3A4” (Pharm Res, 2000).

T1 sequence (P08183 whole entry): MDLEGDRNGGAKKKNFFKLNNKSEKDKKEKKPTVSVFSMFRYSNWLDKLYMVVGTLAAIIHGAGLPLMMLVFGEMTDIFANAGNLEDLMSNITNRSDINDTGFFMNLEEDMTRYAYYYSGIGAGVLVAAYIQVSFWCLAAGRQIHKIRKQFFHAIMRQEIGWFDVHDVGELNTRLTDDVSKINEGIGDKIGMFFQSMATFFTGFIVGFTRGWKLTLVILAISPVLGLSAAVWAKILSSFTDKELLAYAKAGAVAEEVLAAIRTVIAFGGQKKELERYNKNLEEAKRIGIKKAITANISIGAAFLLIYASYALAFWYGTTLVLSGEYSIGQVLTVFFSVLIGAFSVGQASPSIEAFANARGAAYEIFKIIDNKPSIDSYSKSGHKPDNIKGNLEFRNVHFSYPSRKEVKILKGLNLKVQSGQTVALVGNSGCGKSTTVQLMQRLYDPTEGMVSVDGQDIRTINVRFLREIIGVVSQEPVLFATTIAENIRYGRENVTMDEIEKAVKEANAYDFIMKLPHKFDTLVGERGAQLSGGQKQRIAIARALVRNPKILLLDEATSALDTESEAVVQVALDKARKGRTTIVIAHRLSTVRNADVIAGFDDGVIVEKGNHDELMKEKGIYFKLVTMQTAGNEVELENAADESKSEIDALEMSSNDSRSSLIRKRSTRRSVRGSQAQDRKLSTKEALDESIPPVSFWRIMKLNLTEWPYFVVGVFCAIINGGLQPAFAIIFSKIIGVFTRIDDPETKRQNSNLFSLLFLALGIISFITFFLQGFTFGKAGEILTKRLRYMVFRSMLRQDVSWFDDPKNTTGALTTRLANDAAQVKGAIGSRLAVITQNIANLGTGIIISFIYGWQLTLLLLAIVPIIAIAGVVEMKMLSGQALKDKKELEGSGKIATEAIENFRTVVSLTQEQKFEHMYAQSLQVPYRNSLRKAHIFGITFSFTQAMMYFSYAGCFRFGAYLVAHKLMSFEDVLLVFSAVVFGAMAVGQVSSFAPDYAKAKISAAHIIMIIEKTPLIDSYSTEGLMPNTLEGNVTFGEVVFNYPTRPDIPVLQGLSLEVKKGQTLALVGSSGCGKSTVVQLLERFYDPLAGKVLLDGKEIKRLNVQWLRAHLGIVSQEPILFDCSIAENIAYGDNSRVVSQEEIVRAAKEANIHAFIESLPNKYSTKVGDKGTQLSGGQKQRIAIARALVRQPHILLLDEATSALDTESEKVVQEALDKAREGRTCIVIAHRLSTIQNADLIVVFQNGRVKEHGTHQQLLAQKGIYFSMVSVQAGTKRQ

As usually defined, the pIC50 is the negative decadic logarithm of the IC50, by convention in mol/L. A low value points to a high IC50. As for `COC(=O)C1=C(C)NC(C)=C(C(=O)O[C@@H]2CCCN(Cc3ccccc3)C2)C1c1cccc([N+](=O)[O-])c1` (stereo partly specified), in test [1], the pIC50 was 5.02.
In turn, `CCOC(=O)C1=C(COCCN)NC(C)=C(C(=O)OC)C1c1ccccc1Cl` (stereo unspecified) [AMLODIPINE] had a pIC50 in test [1] of 4.66.
In test [1], `COC(=O)C1=C(C)NC(C)=C(C(=O)O[C@H]2CCN(Cc3ccccc3)C2)[C@H]1c1cccc([N+](=O)[O-])c1` [BARNIDIPINE] showed a pIC50 of 5.07.
`CC1=C(C(=O)OCCN(Cc2ccccc2)c2ccccc2)C(c2cccc([N+](=O)[O-])c2)C(P2(=O)OCC(C)(C)CO2)=C(C)N1` (stereo unspecified) [EFONIDIPINE]: the pIC50 was 4.76 in test [2] and 4.69 in test [3].
In test [1], `COC(=O)C1=C(C)NC(C)=C(C(=O)OCCN2CCN(C(c3ccccc3)c3ccccc3)CC2)C1c1cccc([N+](=O)[O-])c1` (stereo unspecified) [MANIDIPINE 6300] had a pIC50 of 5.34.
